# Results: patent US20250296971A1, “GASTRIC INHIBITORY PEPTIDE RECEPTOR LIGANDS” (priority 2021, published 2025)
# *1 amine or outer side, *2 acyl side, *3 side chain or, on linkers, in order; H or OH if unused. Where a SMILES comes first, the peptide text is derived from it. Bridges are numbered along the chain shown (N, C = ends). [ ]: non-standard residue; d: D form. The star is where a group is joined. DOTA(Lu) = O=C1CN2CCN3CCN(CC(=O)*)CCN(CC2)CC(=O)[O][Lu]([O]1)[O]C(=O)C3; X3 = O=C(O)CN1CCN(CC(=O)O)CCN(CC(=O)NCCCOCCOCCOCCCN*)CCN(CC(=O)O)CC1; NH(1-deoxy-D-glucityl) = OC[C@@H](O)[C@@H](O)[C@H](O)[C@@H](O)CN*; DOTA = O=C(O)CN1CCN(CC(=O)O)CCN(CC(=O)*)CCN(CC(=O)O)CC1; Trp(5-Cl) = N[C@@H](Cc1c[nH]c2ccc(Cl)cc12)C(=O)O; Pyridine(2,6-diCH2) = c1cc(C[*:1])nc(C[*:2])c1; Phe(2,4-Cl2) = N[C@@H](Cc1ccc(Cl)cc1Cl)C(=O)O; Pro(4R-NH2) = N[C@H]1CN[C@H](C(=O)O)C1; Glutaryl = O=C(CCCC(=O)[*:2])[*:1]; X29 = c1cc(CNCCN[*:2])cc(C[*:1])c1; X6 = c1cc(CSCCN[*:2])nc(C[*:1])c1; X7 = c1cc(CSCCN[*:2])cc(C[*:1])c1; Hyp = O=C(O)[C@@H]1C[C@@H](O)CN1; X1 = O=C(CN1CCC(N[*:1])CC1)[*:2]; Suc = O=C(CCC(=O)[*:2])[*:1]; hSer = N[C@@H](CCO)C(=O)O; Api = NC1(C(=O)O)CCNCC1; Thp = NC1(C(=O)O)CCOCC1; Aib = CC(C)(N)C(=O)O
# Biological target: T1, GIPR (CHO-K1-hGIPR cells) (Homo sapiens, UniProt P48546)
# T1 construct: host or cells: CHO-K1
# T1 sequence (P48546 22-466): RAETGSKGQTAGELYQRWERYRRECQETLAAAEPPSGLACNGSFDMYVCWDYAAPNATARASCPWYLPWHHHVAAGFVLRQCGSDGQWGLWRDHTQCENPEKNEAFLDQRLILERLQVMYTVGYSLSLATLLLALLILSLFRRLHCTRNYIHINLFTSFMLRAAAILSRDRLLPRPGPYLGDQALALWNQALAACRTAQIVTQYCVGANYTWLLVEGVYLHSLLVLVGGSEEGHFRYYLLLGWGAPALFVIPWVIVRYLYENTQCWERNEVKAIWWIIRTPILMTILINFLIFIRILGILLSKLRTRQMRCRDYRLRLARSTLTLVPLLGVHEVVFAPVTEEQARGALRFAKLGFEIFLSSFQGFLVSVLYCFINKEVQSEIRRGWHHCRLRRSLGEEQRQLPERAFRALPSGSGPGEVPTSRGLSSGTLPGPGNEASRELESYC
# Experiment: FACS binding assay
# Details: competition with 20 nM GIP-057, 4° C., 1 hour, read-out: pIC50 Category (converted)
# In short: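 Read-out: flow cytometric median fluorescence intensity, APC/Cy5 channel, plotted vs peptide conc.; 4PL fit → EC50/pEC50 or IC50/pIC50. Cells: CHO-K1-hGIPR, Accutase-detached, 500.000/mL in PBS + 1% FCS. Detection: APC-streptavidin 1 μg/mL, 30 min, on ice.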
row,SMILES,IC50 [nM]
1,"CC[C@H](C)[C@@H]1NC(=O)[C@H](CC(C)C)NC(=O)C(C)(C)NC(=O)[C@@H](NC(=O)[C@@H](CC(C)C)NC(=O)[C@H](CCC(=O)O)NC(=O)[C@@H]2CCCN2C(=O)[C@H](Cc2c[nH]c3ccc(Cl)cc23)NC(=O)[C@H](Cc2c[nH]c3ccccc23)NC(=O)[C@H](CC(=O)O)NC(=O)CCC(=O)NCCCOCCOCCOCCCNC(=O)CN2CCN(CC(=O)O)CCN(CC(=O)O)CCN(CC(=O)O)CC2)CSCc2cccc(c2)CNCCNC1=O [GIP-093, DOTA-Ttds-Asp-Trp-5Clw-Pro-Glu-leu-[Cys(3MeBn)-Aib-Leu-Ile-en]] ({X3-Suc}-DW[Trp(5-Cl)]PE[dL]C[Aib]LI; linker 7-C via X29)",< 10
2,"CC[C@H](C)[C@@H]1NC(=O)[C@H](CC(C)C)NC(=O)C2(CCOCC2)NC(=O)[C@@H](NC(=O)[C@@H](CC(C)C)NC(=O)[C@H](CCC(=O)O)NC(=O)[C@@H]2CCCN2C(=O)[C@H](Cc2c[nH]c3ccc(Cl)cc23)NC(=O)[C@H](Cc2c[nH]c3ccccc23)NC(=O)[C@H](CC(=O)O)NC(=O)CCC(=O)NCCCOCCOCCOCCCNC(=O)CN2CCN(CC(=O)O)CCN(CC(=O)O)CCN(CC(=O)O)CC2)CSCc2cccc(c2)CSCCNC1=O [GIP-087, DOTA-Ttds-Asp-Trp-5Clw-Pro-Glu-leu-[Cys(3MeBn)-Thp-Leu-Ile-AET]] ({X3-Suc}-DW[Trp(5-Cl)]PE[dL]C[Thp]LI; linker 7-C via X7)",< 10
3,"CC[C@H](C)[C@@H]1NC(=O)[C@H](CC(C)C)NC(=O)[C@H](CCC(=O)O)NC(=O)[C@@H](NC(=O)[C@@H](CC(C)C)NC(=O)[C@H](CCC(=O)O)NC(=O)[C@@H]2C[C@@H](O)CN2C(=O)[C@H](Cc2c[nH]c3ccc(Cl)cc23)NC(=O)[C@H](Cc2c[nH]c3ccccc23)NC(=O)[C@H](CC(=O)O)NC(C)=O)CSCc2cccc(n2)CSC[C@@H](C(N)=O)NC1=O [GIP-235, Ac-Asp-Trp-5Clw-Hyp-Glu-leu-[Cys(2Lut)-Glu-Leu-Ile-Cys]-NH2] (Ac-DW[Trp(5-Cl)][Hyp]E[dL]CELIC-NH2; linker 7-11 via Pyridine(2,6-diCH2))",< 10
4,"CC[C@H](C)[C@@H]1NC(=O)[C@H](CC(C)C)NC(=O)C2(CCOCC2)NC(=O)[C@@H](NC(=O)[C@@H](CC(C)C)NC(=O)[C@H](CCC(=O)O)NC(=O)[C@@H]2C[C@@H](O)CN2C(=O)[C@H](Cc2c[nH]c3ccc(Cl)cc23)NC(=O)[C@H](Cc2c[nH]c3ccccc23)NC(=O)[C@H](CCO)NC(C)=O)CSCc2cccc(n2)CSC[C@@H](C(N)=O)NC1=O [GIP-195, Ac-Hse-Trp-5Clw-Hyp-Glu-leu-[Cys(2Lut)-Thp-Leu-Ile-Cys]-NH2] (Ac-[hSer]W[Trp(5-Cl)][Hyp]E[dL]C[Thp]LIC-NH2; linker 7-11 via Pyridine(2,6-diCH2))",< 10
5,"CC[C@H](C)[C@@H]1NC(=O)[C@H](CC(C)C)NC(=O)C2(CCOCC2)NC(=O)[C@@H](NC(=O)[C@@H](CC(C)C)NC(=O)[C@H](CCC(=O)O)NC(=O)[C@@H]2C[C@@H](O)CN2C(=O)[C@H](Cc2c[nH]c3ccc(Cl)cc23)NC(=O)[C@H](Cc2ccc(Cl)cc2Cl)NC(=O)[C@H](CC(=O)O)NC(C)=O)CSCc2cccc(n2)CSC[C@@H](C(N)=O)NC1=O [GIP-212, Ac-Asp-Egm-5Clw-Hyp-Glu-leu-[Cys(2Lut)-Thp-Leu-Ile-Cys]-NH2] (Ac-D[Phe(2,4-Cl2)][Trp(5-Cl)][Hyp]E[dL]C[Thp]LIC-NH2; linker 7-11 via Pyridine(2,6-diCH2))",< 10
6,"CC[C@H](C)[C@@H]1NC(=O)[C@H](CC(C)C)NC(=O)C2(CCN(C(=O)CN3CCN(CC(=O)O)CCN(CC(=O)O)CCN(CC(=O)O)CC3)CC2)NC(=O)[C@@H](NC(=O)[C@@H](CC(C)C)NC(=O)[C@H](CCC(=O)O)NC(=O)[C@@H]2C[C@@H](N)CN2C(=O)[C@H](Cc2c[nH]c3ccc(Cl)cc23)NC(=O)[C@H](Cc2c[nH]c3ccccc23)NC(=O)[C@H](CCO)NC(=O)CCCC(=O)NC[C@H](O)[C@@H](O)[C@H](O)[C@H](O)CO)CSCc2cccc(n2)CSC[C@@H](C(=O)NC2CCN(CC(=O)N[C@H](CCC(=O)NC[C@H](O)[C@@H](O)[C@H](O)[C@H](O)CO)C(N)=O)CC2)NC1=O [GIP-034, AGLU-Glutar-Hse-Trp-5Clw-Tap-Glu-leu-[Cys(2Lut)-Apc(DOTA)-Leu-Ile-Cys]-APAc-glu(AGLU)-NH2] ({NH(1-deoxy-D-glucityl)-Glutaryl}-[hSer]W[Trp(5-Cl)][Pro(4R-NH2)]E[dL]C[Api](DOTA)LIC[X1][dE](NH(1-deoxy-D-glucityl))-NH2; linker 7-11 via Pyridine(2,6-diCH2))",< 10

# Same assay, conditions: pIC50 Category, competition with 20 nM GIP-057, 4° C., 1 hour
row,SMILES,IC50 [nM]
1,"CC[C@H](C)[C@@H]1NC(=O)[C@H](CC(C)C)NC(=O)C2(CCN(C(=O)CN3CCN4CCN5CCN(CC3)CC(=O)[O][Lu]([O]C(=O)C5)[O]C(=O)C4)CC2)NC(=O)[C@@H](NC(=O)[C@@H](CC(C)C)NC(=O)[C@H](CCC(=O)O)NC(=O)[C@@H]2C[C@@H](O)CN2C(=O)[C@H](Cc2c[nH]c3ccc(Cl)cc23)NC(=O)[C@H](Cc2c[nH]c3ccccc23)NC(=O)CCC(=O)O)CSCc2cccc(n2)CSCCNC1=O [GIP-171, HO-Succinyl-Trp-5Clw-Hyp-Glu-leu-[Cys(2Lut)-Apc(LuDOTA)-Leu-Ile-AET]] (Suc-W[Trp(5-Cl)][Hyp]E[dL]C[Api](DOTA(Lu))LI; linker 6-C via X6)",< 10
